5 compounds from patent publication US7452880B2, “Substituted pyrazolo [3,4-d] pyrimidines and methods of using the same” (priority 2004, dated 2008) can be followed below.

Data set [1] addresses T1, p38 MAP kinase (Homo sapiens, UniProt Q16539).
T1 construct: made in house; host or cells: E. coli (co-expressed with SEK-1 and MEKK to obtain the phosphorylated form)
The data set is described as follows: p38 (MAP) kinase in vitro assay (transfer of γ-33P-phosphate from ATP to Myelin Basic Protein). The class given is biochemical. Conditions: phosphorylated recombinant p38 MAP kinase, MBP substrate, γ-33P-ATP, 30° C. The method, then: This example illustrates a p38 (MAP) kinase in vitro assay useful for evaluating the compounds of the invention.
The p38 MAP kinase inhibitory activity of compounds of this invention in vitro was determined by measuring the transfer of the γ-phosphate from γ-^33P-ATP by p-38 kinase to Myelin Basic Protein (MBP), using a minor modification of the method described in Ahn, et al., J. Biol. Chem. 266:4220-4227 (1991).
The phosphorylated form of the recombinant p38 MAP kinase was co-expressed with SEK-1 and MEKK in E. Coli (see, Khokhlatchev, et al., J. Biol. Chem. 272:11057-11062 (1997)) and then purified by affinity chromatography using a Nickel column.
The phosphorylated p38 MAP kinase was diluted in kinase buffer (20 mM 3-(N-morpholino)propanesulfonic acid, pH 7.2, 25 mM β-glycerol phosphate, 5 mM ethylene glycol-bis(beta-aminoethyl ether)-N,N,N′,N′-tetraacetic acid, 1 mM sodium ortho-vanadate, 1 mM dithiothreitol, 40 mM magnesium chloride). Test compound dissolved in DMSO or only DMSO (control) was added and the samples were incubated for 10 min at 30° C. The kinase reaction was initiated by the addition of a substrate cocktail containing MBP and γ-^33P-ATP. […] The phosphorylated MBP was then separated from the residual γ-^33P-ATP using a phosphocellulose membrane (Millipore, Bedfrod, Mass.) and quantitated using a scintillation counter (Packard, Meriden, Conn.).

As usually defined, the IC50 is the midpoint of a concentration-inhibition curve. Usually melting point stands for the temperature of the solid-liquid transition.

T1 sequence (Q16539 whole entry): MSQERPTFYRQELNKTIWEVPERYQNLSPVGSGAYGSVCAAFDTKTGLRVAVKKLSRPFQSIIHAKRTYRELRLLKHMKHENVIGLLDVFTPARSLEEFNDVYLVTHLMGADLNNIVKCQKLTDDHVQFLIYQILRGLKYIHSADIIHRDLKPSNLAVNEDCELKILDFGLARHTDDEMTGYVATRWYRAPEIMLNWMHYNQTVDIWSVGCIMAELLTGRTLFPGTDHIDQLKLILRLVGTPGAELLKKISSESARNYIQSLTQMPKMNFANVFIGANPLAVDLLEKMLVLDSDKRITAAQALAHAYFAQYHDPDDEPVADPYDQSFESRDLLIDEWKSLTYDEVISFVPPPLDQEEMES

For `Fc1ccc(Oc2ncc3c(-c4ccccc4Cl)n[nH]c3n2)c(F)c1` [Compound 3, 3-(2-Chloro-phenyl)-6-(2,4-difluoro-phenoxy)-1H-pyrazolo[3,4-d]pyrimidine], the IC50 in data set [1] was around 0.01 µM.
Turning to `FC(F)(F)c1ccccc1Oc1ncc2c(-c3ccccc3Cl)n[nH]c2n1` [Compound 13, 3-(2-Chloro-phenyl)-6-(2-trifluoromethyl-phenoxy)-1H-pyrazolo[3,4-d]pyrimidine], the melting point fell in the range of 55.3 to 56.1 °C.
Same read-out and setting: then `Clc1ccccc1Oc1ncc2c(-c3cccs3)n[nH]c2n1` [Compound 22, 6-(2-Chloro-phenoxy)-3-thiophen-2-yl-1H-pyrazolo[3,4-d]pyrimidine], with 221.3 to 223.1 °C; and `COc1ccc(F)c(-c2n[nH]c3nc(Oc4ccc(F)cc4F)ncc23)c1` [Compound 64, 6-(2,4-Difluoro-phenoxy)-3-(2-fluoro-5-methoxy-phenyl)-1H-pyrazolo[3,4-d]pyrimidine], with 177.6 to 183.2 °C.
For `COc1ccccc1-c1n[nH]c2cc(Oc3ccc(F)cc3F)cnc12` [Compound 98, 6-(2,4-Difluoro-phenoxy)-3-(2-methoxy-phenyl)-1H-pyrazolo[4,3-b]pyridine], the melting point fell in the range of 143.2 to 144.9 °C.
